# Measured values reported in patent US7045532B2 (Millennium Pharmaceuticals, Inc., priority 1999, dated 2006).
# Where two headings read alike, the source gives them in different places.
# How the values were obtained:
# [1] = Pharmacokinetic profile in BBZDR rats (plasma samples); assay type: in vivo, rat (BBZDR); details: 100 and 300 mg/kg/day oral gavage, 0-24 hours after dosing
# Procedure: To determine the pharmacokinetic profile of Compound HE, plasma samples were taken at 0, 0.5, 1, 2, 4, 8, 12, and 24 hours after dosing in both Compound HE dose groups.
# [2] = molecular target: T1, ACE-2 (Homo sapiens, UniProt Q9BYF1); test: ACE-2 Competitive Substrate Assay (ACS Assay); assay type: biochemical
# T1 construct: a stop codon inserted after the serine immediately preceding the transmembrane domain; made in house; host or cells: CHO K1 cells (transient transfection, purified from conditioned medium)
# T1 sequence (Q9BYF1 18-740 limits assumed): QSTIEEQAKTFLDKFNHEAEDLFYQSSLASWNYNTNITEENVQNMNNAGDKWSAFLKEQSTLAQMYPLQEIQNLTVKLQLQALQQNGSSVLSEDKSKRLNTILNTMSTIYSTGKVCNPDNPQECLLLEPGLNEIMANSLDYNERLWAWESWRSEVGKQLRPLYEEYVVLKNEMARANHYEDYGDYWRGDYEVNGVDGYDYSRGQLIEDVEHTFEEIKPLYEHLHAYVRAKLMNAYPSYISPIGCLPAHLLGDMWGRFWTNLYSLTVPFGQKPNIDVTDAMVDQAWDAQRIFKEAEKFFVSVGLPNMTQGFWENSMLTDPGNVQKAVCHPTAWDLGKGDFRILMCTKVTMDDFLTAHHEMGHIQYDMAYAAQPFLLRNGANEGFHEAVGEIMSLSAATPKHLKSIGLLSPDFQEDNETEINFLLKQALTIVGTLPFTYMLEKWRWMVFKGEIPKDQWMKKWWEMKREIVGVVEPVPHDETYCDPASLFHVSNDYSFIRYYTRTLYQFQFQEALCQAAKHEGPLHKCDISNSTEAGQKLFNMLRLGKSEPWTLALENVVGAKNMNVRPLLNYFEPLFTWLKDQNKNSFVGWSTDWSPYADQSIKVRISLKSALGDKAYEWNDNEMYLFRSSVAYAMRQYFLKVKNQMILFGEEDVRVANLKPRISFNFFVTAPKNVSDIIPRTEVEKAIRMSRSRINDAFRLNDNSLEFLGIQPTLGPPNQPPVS
# [3] = molecular target: T2, Carboxypeptidase A (Bos taurus, UniProt P00730); test: Carboxypeptidase A activity assay; assay type: biochemical; details: Ki class; compounds tested in 5% DMSO, 12 compound concentrations
# T2 sequence (P00730 111-419): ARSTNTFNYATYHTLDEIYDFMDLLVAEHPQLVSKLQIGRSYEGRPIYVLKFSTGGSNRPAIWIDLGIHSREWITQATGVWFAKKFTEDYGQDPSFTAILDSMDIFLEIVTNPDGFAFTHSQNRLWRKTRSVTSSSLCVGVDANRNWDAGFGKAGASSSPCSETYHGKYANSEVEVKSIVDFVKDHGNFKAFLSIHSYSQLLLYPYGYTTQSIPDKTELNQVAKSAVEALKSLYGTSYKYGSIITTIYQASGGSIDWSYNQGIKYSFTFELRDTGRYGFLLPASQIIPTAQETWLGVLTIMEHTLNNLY
# Outline: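 Bovine carboxypeptidase A activity followed at 328 nm in 5% DMSO, reaction stopped with EDTA. Activity measured at 12 compound concentrations. Ki derived from apparent Ki as Ki=Kiapp/(1+[S]/Km).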
# [4] = Effect on appetite: food consumption in ICR mice; details: 100 mg/kg oral
# [5] = molecular target: T3, ACE (Sigma, A2580) (Sus scrofa, UniProt F1RRW5); test: ACE enzymatic activity assay; assay type: biochemical, porcine; details: Ki class; compounds tested in 5% DMSO, 12 compound concentrations
# T3 construct: ACE from porcine kidney; purchased Sigma A2580; host or cells: porcine kidney
# T3 sequence (F1RRW5 34-1309): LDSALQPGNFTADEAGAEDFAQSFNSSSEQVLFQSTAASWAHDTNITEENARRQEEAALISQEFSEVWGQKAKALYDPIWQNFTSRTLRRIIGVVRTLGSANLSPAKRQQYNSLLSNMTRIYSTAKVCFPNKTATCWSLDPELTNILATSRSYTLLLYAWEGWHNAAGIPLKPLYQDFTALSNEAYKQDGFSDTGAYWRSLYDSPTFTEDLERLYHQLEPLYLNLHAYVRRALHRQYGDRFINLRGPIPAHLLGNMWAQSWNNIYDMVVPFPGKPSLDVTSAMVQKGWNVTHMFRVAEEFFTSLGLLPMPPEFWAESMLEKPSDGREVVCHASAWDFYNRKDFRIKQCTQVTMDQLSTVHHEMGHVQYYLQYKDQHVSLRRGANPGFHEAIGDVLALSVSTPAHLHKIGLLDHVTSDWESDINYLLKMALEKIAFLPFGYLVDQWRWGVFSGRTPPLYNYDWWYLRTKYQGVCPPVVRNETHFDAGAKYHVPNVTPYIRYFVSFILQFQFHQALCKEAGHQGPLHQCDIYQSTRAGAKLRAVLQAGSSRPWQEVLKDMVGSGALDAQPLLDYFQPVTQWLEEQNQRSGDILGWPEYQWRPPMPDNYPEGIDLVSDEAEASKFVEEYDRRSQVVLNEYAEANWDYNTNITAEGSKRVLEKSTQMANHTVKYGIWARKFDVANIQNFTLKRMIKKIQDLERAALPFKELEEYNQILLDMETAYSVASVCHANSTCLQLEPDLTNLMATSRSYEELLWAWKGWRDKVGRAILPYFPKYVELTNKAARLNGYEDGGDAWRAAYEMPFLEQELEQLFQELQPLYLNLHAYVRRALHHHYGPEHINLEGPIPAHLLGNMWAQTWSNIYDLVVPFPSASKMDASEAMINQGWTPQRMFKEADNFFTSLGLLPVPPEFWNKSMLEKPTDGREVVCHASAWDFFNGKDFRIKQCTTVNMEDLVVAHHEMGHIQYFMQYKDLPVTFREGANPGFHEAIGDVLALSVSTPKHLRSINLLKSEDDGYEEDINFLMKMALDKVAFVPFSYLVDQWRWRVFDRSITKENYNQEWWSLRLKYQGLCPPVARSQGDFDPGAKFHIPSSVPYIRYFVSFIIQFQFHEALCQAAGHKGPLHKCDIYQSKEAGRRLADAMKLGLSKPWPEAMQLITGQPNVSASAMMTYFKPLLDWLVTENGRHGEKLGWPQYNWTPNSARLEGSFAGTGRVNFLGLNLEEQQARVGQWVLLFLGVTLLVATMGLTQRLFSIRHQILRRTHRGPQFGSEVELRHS
# Outline: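 ACE (1 nM final) in 50 mM HEPES, 300 mM NaCl, 0.01% Brij-35, pH 7.5, with compound in 5% DMSO at 12 concentrations, 25 °C. Substrate cleavage run ~30 min, stopped with EDTA; fluorescence read at excitation 320 nm, emission 405 nm.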
# [6] = molecular target: ACE-2 (Rattus norvegicus, UniProt Q5EGZ1); test: ACE-2 Competitive Substrate Assay, rat ACE-2; assay type: biochemical; details: Ki class; compounds tested in 5% DMSO, 12 compound concentrations
# Sequence of ACE-2 (Rattus norvegicus, UniProt Q5EGZ1) (Q5EGZ1 18-805): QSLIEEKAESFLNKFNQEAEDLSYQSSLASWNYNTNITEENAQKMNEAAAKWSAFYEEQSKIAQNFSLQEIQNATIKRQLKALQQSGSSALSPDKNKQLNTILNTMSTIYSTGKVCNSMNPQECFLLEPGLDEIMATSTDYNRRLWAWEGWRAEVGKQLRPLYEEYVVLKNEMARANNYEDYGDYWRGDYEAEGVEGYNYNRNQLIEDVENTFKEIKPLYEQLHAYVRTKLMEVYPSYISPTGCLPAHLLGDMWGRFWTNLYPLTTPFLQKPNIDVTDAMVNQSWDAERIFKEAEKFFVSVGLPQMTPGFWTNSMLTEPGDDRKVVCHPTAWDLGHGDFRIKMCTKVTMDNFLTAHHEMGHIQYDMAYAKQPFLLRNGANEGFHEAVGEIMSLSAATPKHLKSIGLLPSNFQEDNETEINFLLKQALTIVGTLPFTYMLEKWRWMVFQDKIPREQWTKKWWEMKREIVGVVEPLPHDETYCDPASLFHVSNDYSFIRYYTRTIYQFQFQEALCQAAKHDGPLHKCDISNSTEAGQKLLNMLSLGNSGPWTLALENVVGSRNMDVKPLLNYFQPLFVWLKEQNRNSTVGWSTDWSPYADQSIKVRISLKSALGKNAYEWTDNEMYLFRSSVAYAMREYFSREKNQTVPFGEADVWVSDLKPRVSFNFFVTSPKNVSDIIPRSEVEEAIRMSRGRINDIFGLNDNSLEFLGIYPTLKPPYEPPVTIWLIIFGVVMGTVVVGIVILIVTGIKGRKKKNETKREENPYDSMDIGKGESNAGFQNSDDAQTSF
compound,measurement,setting,value
"CC(C)CC(N[C@@H](Cc1cncn1Cc1cc(Cl)cc(Cl)c1)C(=O)O)C(=O)O (single isomer, unassigned) [HE, 2-[1-Carboxy-2-[3-(3,5-dichloro-benzyl)-3H-imidazol-4-yl]-ethylamino)4-methyl-pentanoic acid]",systemic exposure (plasma levels),[1],relatively low systemic levels
same,Ki,"[2]; Ki class, compounds tested in 5% DMSO, 12 compound concentrations, Ki=Kiapp/(1+[S]/Km), read-out: Human ACE-2 Activity",< 0.1 µM
same,Ki,"[2]; Table 3, very good ACE-2 inhibiting compounds, species not given, read-out: ACE-2 Activity, Ki",< 0.05 µM
same,Ki,[3],10 to 50 µM
same,reduction of food intake compared to vehicle,[4]; 1 hr after administration,about 40%
same,reduction of food intake compared to vehicle,[4]; 3 hr after administration,about 18%
same,Ki,[5],10 to 50 µM
same,Ki,[6],< 0.1 µM
